How the values were obtained:
Mer = target: T1, Mer (Homo sapiens, UniProt Q12866); assay: Mer autophosphorylation ELISA in transient transfected 293A cells; assay type: cell-based; conditions: Table 3 Cellular Activities; MERTK-transfected 293A cells, phospho-Mer ELISA
T1 construct: host or cells: 293A cells (Thermo Fisher #R70507)
T1 sequence (Q12866 21-999): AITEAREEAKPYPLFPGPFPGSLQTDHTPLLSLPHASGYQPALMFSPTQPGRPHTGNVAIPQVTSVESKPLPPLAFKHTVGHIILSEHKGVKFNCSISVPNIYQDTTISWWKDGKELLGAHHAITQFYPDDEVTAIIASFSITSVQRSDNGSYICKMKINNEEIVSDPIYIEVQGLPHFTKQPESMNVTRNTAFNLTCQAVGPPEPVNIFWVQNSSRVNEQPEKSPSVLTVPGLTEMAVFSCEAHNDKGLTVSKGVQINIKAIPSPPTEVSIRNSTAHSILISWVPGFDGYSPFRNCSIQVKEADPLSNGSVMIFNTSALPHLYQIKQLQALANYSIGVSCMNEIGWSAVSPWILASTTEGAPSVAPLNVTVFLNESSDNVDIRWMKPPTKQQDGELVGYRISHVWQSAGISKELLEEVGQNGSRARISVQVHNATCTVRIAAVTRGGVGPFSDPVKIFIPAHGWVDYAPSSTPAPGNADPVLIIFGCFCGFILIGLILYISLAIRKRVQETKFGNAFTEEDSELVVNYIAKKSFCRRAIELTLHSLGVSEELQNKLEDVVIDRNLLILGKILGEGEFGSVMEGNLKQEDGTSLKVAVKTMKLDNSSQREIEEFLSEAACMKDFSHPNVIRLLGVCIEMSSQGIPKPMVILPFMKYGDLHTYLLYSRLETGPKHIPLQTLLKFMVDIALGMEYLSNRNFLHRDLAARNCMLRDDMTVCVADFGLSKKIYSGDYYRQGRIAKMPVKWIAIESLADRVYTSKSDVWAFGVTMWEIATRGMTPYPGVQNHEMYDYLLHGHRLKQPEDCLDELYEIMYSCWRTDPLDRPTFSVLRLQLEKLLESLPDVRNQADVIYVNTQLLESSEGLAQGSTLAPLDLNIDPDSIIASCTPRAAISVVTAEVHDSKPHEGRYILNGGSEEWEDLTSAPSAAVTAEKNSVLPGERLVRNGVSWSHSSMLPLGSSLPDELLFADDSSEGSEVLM
How it was run: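 293A cells transiently transfected with human MERTK DNA, replated after 24 h, then treated 1 h with 8-point compound dilutions in serum-free medium (0.3% DMSO). Lysates assayed by phospho-Mer sandwich ELISA against phospho-Mer standard; DMSO = 100%, reference inhibitor = 0% activity; IC50 by 4-parameter logistic fit.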

Met = Met (Homo sapiens, UniProt P08581); assay: Met autophosphorylation ELISA in PC-3 cells; assay type: cell-based; parameters: endogenous in cells; host or cells: PC-3 prostate cancer cells (ATCC #CRL-1435); conditions: Table 3 Cellular Activities, HGF-stimulated, phospho-Met ELISA, read-out: c-Met IC50
How it was run: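 Serum-starved (3 h) PC-3 cells pre-incubated 1 h with compound (8-point dose curve, 0.3% DMSO), then stimulated with 100 ng/mL recombinant human HGF for 10 min. Lysate phospho-Met (panTyr) measured by sandwich ELISA; IC50 from 4-parameter logistic fit, normalised to DMSO (100%) and reference-inhibitor (0%) controls.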

Sequence of Met (P08581 25-1390): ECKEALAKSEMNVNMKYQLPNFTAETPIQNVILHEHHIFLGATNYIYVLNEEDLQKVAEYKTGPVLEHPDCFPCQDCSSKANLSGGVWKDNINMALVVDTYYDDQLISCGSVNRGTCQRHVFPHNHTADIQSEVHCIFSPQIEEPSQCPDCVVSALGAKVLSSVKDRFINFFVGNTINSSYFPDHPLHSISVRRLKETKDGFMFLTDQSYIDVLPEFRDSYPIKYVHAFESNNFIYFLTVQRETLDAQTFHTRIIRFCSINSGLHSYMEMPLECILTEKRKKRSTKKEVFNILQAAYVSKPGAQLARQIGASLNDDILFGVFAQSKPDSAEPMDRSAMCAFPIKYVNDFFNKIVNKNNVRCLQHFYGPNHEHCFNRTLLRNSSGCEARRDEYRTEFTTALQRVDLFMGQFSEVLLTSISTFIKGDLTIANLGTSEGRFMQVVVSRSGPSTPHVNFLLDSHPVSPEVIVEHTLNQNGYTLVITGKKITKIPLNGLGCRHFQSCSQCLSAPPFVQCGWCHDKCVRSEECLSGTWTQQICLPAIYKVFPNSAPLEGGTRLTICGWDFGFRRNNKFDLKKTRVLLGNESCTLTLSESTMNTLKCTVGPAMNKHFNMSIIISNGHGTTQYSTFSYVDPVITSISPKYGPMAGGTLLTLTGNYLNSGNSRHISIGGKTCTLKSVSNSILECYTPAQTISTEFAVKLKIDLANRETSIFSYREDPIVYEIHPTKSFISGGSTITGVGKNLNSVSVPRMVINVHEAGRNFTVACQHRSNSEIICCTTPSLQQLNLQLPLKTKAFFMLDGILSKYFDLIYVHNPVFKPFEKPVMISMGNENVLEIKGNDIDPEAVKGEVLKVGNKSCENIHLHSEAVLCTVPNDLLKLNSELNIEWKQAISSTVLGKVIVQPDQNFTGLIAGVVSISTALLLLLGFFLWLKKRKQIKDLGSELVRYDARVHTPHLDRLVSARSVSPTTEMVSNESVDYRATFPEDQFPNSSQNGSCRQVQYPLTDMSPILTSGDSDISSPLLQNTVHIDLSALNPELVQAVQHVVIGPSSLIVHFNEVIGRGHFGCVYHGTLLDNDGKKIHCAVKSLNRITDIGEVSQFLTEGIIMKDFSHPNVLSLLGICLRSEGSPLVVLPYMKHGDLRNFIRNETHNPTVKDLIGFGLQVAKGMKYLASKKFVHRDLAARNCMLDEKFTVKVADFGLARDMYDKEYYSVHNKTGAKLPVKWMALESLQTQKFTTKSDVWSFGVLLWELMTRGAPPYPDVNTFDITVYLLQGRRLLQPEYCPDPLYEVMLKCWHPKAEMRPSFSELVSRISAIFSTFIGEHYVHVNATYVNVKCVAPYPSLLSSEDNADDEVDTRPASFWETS

SMILES | IC50 (Mer) [nM] | IC50 (Met) [nM]
COc1cnc2c(Oc3ccc(NC(=O)c4cnc(C)c(-c5ccco5)c4O)cc3F)ccnc2c1 [Compound 96, N-[3-Fluoro-4-[(7-methoxy-1,5-naphthyridin-4-yl)oxy]phenyl]-5-(2-furyl)-4-hydroxy-6-methyl-pyridine-3-carboxamide] | ≤ 100 | ≤ 100
COc1cc2nccc(Oc3ccc(NC(=O)c4c(C)nc(C)c(-c5ccc(C)o5)c4O)cc3F)c2nc1OC [Compound 110, N-[4-[(6,7-Dimethoxy-1,5-naphthyridin-4-yl)oxy]-3-fluoro-phenyl]-4-hydroxy-2,6-dimethyl-5-(5-methyl-2-furyl)pyridine-3-carboxamide] | ≤ 100 | ≤ 100
CCc1ccc(-c2c(C)ncc(C(=O)Nc3ccc(Oc4ccnc5cc(OC)c(OC)nc45)c(F)c3)c2O)o1 [Compound 153, N-[4-[(6,7-Dimethoxy-1,5-naphthyridin-4-yl)oxy]-3-fluorophenyl]-5-(5-ethylfuran-2-yl)-4-hydroxy-6-methylpyridine-3-carboxamide] | ≤ 100 | 100 to 300
COc1cc2nccc(Oc3ccc(NC(=O)c4c(C)ncc(-c5sccc5C)c4O)cc3F)c2nc1OC [Compound 126, N-[4-[(6,7-Dimethoxy-1,5-naphthyridin-4-yl)oxy]-3-fluorophenyl]-4-hydroxy-2-methyl-5-(3-methylthiophen-2-yl)pyridine-3-carboxamide] | ≤ 100 | ≤ 100
COc1cnc2c(Oc3ccc(NC(=O)c4cnc(C)c(-c5ccc(C)s5)c4O)cc3F)ccnc2c1 [Compound 101, N-[3-Fluoro-4-[(7-methoxy-1,5-naphthyridin-4-yl)oxy]phenyl]-4-hydroxy-6-methyl-5-(5-methyl-2-thienyl) pyridine-3-carboxamide] | ≤ 100 | ≤ 100
COCc1nc(C)c(-c2ccccn2)c(O)c1C(=O)Nc1ccc(Oc2ccnc3cc(OC)c(OC)nc23)c(F)c1 [Compound 195, N-[4-[(6,7-Dimethoxy-1,5-naphthyridin-4-yl)oxy]-3-fluorophenyl]-4-hydroxy-2-(methoxymethyl)-6-methyl-5-pyridin-2-ylpyridine-3-carboxamide] | ≤ 100 | ≤ 100
COc1cc2nccc(Oc3ccc(NC(=O)c4c(C)nc(C)c(-c5ccnn5C)c4O)cc3F)c2nc1OC [Compound 108, N-[4-[(6,7-Dimethoxy-1,5-naphthyridin-4-yl)oxy]-3-fluoro-phenyl]-4-hydroxy-2,6-dimethyl-5-(2-methylpyrazol-3-yl) pyridine-3-carboxamide] | ≤ 100 | ≤ 100
COc1cc2nccc(Oc3ccc(NC(=O)c4cn(CCF)c(C)c(-c5ccco5)c4=O)cc3F)c2nc1OC [Compound 333, N-[4-[(6,7-Dimethoxy-1,5-naphthyridin-4-yl)oxy]-3-fluorophenyl]-1-(2-fluoroethyl)-5-(furan-2-yl)-6-methyl-4-oxopyridine-3-carboxamide] | ≤ 100 | ≤ 100
COc1cc2nccc(Oc3ccc(NC(=O)c4c(C)nc(C)c(-c5ccoc5)c4O)cc3F)c2nc1OC [Compound 112, N-[4-[(6,7-Dimethoxy-1,5-naphthyridin-4-yl)oxy]-3-fluoro-phenyl]-5-(3-furyl)-4-hydroxy-2,6-dimethyl-pyridine-3-carboxamide] | ≤ 100 | ≤ 100
COc1cc2nccc(Oc3ccc(NC(=O)c4c(C)nc(C)c(-c5cc(C(F)(F)F)nn5C)c4O)cc3F)c2nc1OC [Compound 138] | ≤ 100 | ≤ 100
COc1cc2nccc(Oc3ccc(NC(=O)c4c(C)n(C)c(C)c(-c5ccco5)c4=O)cc3F)c2nc1OC [Compound 160, N-[4-[(6,7-Dimethoxy-1,5-naphthyridin-4-yl)oxy]-3-fluorophenyl]-5-(furan-2-yl)-1,2,6-trimethyl-4-oxopyridine-3-carboxamide] | ≤ 100 | ≤ 100
COc1cc2nccc(Oc3ccc(NC(=O)c4cnc(C)c(-c5cccs5)c4O)cc3F)c2nc1OC [Compound 90, N-[4-[(6,7-Dimethoxy-1,5-naphthyridin-4-yl)oxy]-3-fluoro-phenyl]-4-hydroxy-6-methyl-5-(2-thienyl)pyridine-3-carboxamide] | ≤ 100 | ≤ 100
COc1cnc2c(Oc3ccc(NC(=O)c4cnc(C)c(-c5cc(C)cs5)c4O)cc3F)ccnc2c1 [Compound 102, N-[3-Fluoro-4-[(7-methoxy-1,5-naphthyridin-4-yl)oxy]phenyl]-4-hydroxy-6-methyl-5-(4-methyl-2-thienyl) pyridine-3-carboxamide] | ≤ 100 | ≤ 100
COc1cc2nccc(Oc3ccc(NC(=O)c4cnc(C)c(-c5cnoc5)c4O)cc3F)c2nc1OC [Compound 140, N-[4-[(6,7-Dimethoxy-1,5-naphthyridin-4-yl)oxy]-3-fluorophenyl]-4-hydroxy-6-methyl-5-(1,2-oxazol-4-yl)pyridine-3-carboxamide] | ≤ 100 | ≤ 100
COc1cc2nccc(Oc3ccc(NC(=O)c4cnc(C)c(-c5ccc(C(C)C)o5)c4O)cc3F)c2nc1OC [Compound 154, N-[4-[(6,7-Dimethoxy-1,5-naphthyridin-4-yl)oxy]-3-fluorophenyl]-4-hydroxy-6-methyl-5-(5-propan-2-ylfuran-2-yl)pyridine-3-carboxamide] | ≤ 100 | ≤ 100
COc1cc2nccc(Oc3ccc(NC(=O)c4c(C)ncc(-c5ccsc5)c4O)cc3F)c2nc1OC [Compound 127, N-[4-[(6,7-Dimethoxy-1,5-naphthyridin-4-yl)oxy]-3-fluorophenyl]-4-hydroxy-2-methyl-5-thiophen-3-ylpyridine-3-carboxamide] | ≤ 100 | ≤ 100
COc1ccc2nccc(Oc3ccc(NC(=O)c4cnc(C)c(-c5cccs5)c4O)cc3F)c2n1 [Compound 128, N-[3-Fluoro-4-[(6-methoxy-1,5-naphthyridin-4-yl)oxy]phenyl]-4-hydroxy-6-methyl-5-thiophen-2-ylpyridine-3-carboxamide] | ≤ 100 | ≤ 100
COc1cc2nccc(Oc3ccc(NC(=O)c4c(C)nc(C)c(-c5cccs5)c4O)cc3F)c2nc1OC [Compound 107] | ≤ 100 | ≤ 100
COc1cnc2c(Oc3ccc(NC(=O)c4cnc(C)c(-c5cccs5)c4O)cc3F)ccnc2c1 [Compound 100, N-[3-Fluoro-4-[(7-methoxy-1,5-naphthyridin-4-yl)oxy]phenyl]-4-hydroxy-6-methyl-5-(2-thienyl)pyridine-3-carboxamide] | ≤ 100 | ≤ 100
C=C(C)c1ccc(-c2c(C)ncc(C(=O)Nc3ccc(Oc4ccnc5cc(OC)c(OC)nc45)c(F)c3)c2O)o1 [Compound 152, N-[4-[(6,7-Dimethoxy-1,5-naphthyridin-4-yl)oxy]-3-fluorophenyl]-4-hydroxy-6-methyl-5-(5-prop-1-en-2-ylfuran-2-yl)pyridine-3-carboxamide] | ≤ 100 | 100 to 300
COc1cc2nccc(Oc3ccc(NC(=O)c4cnc(C)c(-c5ccco5)c4O)cc3F)c2nc1OC [Compound 89, N-[4-[(6,7-Dimethoxy-1,5-naphthyridin-4-yl)oxy]-3-fluorophenyl]-5-(furan-2-yl)-4-hydroxy-6-methylpyridine-3-carboxamide] | ≤ 100 | ≤ 100
C=CCc1ccc(-c2c(C)ncc(C(=O)Nc3ccc(Oc4ccnc5cc(OC)c(OC)nc45)c(F)c3)c2O)o1 [Compound 155, N-[4-[(6,7-Dimethoxy-1,5-naphthyridin-4-yl)oxy]-3-fluorophenyl]-4-hydroxy-6-methyl-5-(5-prop-2-enylfuran-2-yl)pyridine-3-carboxamide] | ≤ 100 | ≤ 100
C=Cc1ccc(-c2c(C)ncc(C(=O)Nc3ccc(Oc4ccnc5cc(OC)c(OC)nc45)c(F)c3)c2O)o1 [Compound 151, N-[4-[(6,7-Dimethoxy-1,5-naphthyridin-4-yl)oxy]-3-fluorophenyl]-5-(5-ethenylfuran-2-yl)-4-hydroxy-6-methylpyridine-3-carboxamide] | ≤ 100 | ≤ 100

From patent US20230151003A1, “COMPOUNDS AND METHODS OF USE” (Exelixis, Inc., priority 2020, published 2023)
